Source: ChEMBL document CHEMBL5247649, “Comparative Efficacy and Selectivity of Pharmacological Inhibitors of DYRK and CLK Protein Kinases” (J Med Chem, 2023)

Legend:
[1] = target: T1, Dual specificity protein kinase CLK1 (Homo sapiens, UniProt P49759); test: biochemical; format: cell-based, Sf9
[2] = target: Dual specificity protein kinase CLK2 (Homo sapiens, UniProt P49760); test: biochemical
[3] = target: T2, Glycogen synthase kinase-3 beta (Homo sapiens, UniProt P49841); test: biochemical; format: cell-based, Sf9
T2 sequence (P49841 whole entry): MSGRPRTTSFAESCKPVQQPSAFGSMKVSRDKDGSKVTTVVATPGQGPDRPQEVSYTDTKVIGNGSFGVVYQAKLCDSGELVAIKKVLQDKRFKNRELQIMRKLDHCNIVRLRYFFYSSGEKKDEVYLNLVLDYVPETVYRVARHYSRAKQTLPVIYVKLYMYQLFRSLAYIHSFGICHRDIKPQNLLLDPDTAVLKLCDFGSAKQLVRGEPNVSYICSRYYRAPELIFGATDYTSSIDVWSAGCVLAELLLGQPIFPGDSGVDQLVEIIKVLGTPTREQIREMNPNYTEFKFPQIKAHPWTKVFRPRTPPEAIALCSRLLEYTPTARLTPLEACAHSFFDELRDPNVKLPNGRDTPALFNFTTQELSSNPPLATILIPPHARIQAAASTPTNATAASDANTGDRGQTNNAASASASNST

[4] = target: T3, Dual specificity tyrosine-phosphorylation-regulated kinase 4 (Homo sapiens, UniProt Q9NR20); test: biochemical; format: cell-based, Sf9
T3 sequence (Q9NR20 whole entry): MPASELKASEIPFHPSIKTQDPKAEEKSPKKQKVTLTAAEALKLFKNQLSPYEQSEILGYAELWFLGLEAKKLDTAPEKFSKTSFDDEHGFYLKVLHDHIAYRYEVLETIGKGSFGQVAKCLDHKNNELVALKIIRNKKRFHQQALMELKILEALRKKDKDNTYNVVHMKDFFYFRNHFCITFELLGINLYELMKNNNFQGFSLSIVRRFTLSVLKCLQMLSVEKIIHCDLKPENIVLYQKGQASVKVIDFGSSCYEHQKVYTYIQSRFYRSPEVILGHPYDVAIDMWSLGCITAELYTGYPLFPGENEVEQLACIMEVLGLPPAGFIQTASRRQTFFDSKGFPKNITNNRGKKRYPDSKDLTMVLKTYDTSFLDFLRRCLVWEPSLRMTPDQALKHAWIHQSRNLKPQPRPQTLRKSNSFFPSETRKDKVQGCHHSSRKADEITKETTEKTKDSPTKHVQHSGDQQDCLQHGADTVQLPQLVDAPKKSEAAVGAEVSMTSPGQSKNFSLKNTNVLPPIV

[5] = target: Dual specificity protein kinase CLK3 (Homo sapiens, UniProt P49761); test: biochemical; format: cell-based, Sf9
Chain of Dual specificity protein kinase CLK3 (P49761 whole entry): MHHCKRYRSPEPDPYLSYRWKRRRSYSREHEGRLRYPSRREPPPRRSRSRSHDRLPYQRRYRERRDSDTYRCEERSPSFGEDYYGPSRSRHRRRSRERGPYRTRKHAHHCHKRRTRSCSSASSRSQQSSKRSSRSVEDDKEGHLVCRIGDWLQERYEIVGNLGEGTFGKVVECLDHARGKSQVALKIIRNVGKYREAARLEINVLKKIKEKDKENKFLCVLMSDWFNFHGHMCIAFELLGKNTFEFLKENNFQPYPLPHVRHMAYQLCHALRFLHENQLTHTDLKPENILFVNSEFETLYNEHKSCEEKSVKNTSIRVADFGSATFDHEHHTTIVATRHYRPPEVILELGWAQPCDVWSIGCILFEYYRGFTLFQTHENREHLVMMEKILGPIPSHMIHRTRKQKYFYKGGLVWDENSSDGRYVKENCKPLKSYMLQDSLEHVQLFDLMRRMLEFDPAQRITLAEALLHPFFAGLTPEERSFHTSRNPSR

in vitro = conditions: mouse, ht-22
[6] = target: Casein kinase I isoform epsilon (Homo sapiens, UniProt P49674); test: biochemical; format: cell-based, Sf9
Chain of Casein kinase I isoform epsilon (P49674 whole entry, canonical isoform): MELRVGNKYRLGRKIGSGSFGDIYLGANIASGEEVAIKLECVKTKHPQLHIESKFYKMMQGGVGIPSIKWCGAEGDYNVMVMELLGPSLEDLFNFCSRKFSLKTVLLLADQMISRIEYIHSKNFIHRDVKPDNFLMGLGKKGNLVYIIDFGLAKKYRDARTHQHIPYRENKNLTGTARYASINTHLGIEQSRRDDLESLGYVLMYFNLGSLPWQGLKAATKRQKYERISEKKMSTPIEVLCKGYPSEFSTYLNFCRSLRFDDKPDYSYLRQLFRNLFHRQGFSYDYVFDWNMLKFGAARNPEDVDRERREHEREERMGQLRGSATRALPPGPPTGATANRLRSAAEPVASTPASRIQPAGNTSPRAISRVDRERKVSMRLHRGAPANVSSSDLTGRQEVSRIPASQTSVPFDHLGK

[7] = target: T4, Dual specificity tyrosine-phosphorylation-regulated kinase 2 (Homo sapiens, UniProt Q92630); test: biochemical; format: cell-based, Sf9
T4 sequence (Q92630 whole entry): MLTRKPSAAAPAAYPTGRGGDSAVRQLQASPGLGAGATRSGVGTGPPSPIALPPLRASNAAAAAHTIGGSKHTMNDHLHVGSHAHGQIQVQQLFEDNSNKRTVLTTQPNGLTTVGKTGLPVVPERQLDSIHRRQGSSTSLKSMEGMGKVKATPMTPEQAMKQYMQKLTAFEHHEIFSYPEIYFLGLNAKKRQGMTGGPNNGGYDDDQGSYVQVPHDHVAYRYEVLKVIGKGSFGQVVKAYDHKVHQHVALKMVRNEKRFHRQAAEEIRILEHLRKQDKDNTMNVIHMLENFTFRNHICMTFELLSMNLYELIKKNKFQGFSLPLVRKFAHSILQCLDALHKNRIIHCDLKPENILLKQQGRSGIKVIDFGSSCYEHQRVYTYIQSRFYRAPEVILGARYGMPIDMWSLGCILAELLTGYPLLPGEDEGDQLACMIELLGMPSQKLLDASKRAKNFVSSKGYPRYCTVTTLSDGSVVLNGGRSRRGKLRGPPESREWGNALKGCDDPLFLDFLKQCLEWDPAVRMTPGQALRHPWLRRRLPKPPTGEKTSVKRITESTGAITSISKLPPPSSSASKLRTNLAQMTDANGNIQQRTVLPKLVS

[8] = target: Cyclin-dependent kinase 5/CDK5 activator 1 (Homo sapiens, UniProt Q00535); test: biochemical; format: cell-based, Sf9
Chain of Cyclin-dependent kinase 5/CDK5 activator 1 (Q00535 whole entry): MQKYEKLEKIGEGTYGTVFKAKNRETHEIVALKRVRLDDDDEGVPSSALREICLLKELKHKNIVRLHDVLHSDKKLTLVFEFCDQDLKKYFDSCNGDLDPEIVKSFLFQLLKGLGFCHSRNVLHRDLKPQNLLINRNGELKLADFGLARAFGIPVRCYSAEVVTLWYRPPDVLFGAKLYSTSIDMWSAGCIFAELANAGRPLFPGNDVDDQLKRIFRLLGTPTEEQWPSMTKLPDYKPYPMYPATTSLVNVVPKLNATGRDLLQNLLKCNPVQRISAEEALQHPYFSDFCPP
Chain of Cyclin-dependent kinase 5/CDK5 activator 1 (Q15078 whole entry, further chain): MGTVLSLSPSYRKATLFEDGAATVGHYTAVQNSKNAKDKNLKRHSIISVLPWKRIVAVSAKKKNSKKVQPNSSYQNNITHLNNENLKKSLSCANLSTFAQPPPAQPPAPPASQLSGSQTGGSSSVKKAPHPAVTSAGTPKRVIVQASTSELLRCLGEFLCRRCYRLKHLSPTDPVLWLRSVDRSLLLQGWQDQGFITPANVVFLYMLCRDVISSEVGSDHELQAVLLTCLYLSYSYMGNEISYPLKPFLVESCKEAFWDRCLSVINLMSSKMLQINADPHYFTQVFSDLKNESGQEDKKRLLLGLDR

[9] = target: Dual specificity protein kinase CLK4 (Homo sapiens, UniProt Q9HAZ1); test: biochemical
Chain of Dual specificity protein kinase CLK4 (Q9HAZ1 whole entry): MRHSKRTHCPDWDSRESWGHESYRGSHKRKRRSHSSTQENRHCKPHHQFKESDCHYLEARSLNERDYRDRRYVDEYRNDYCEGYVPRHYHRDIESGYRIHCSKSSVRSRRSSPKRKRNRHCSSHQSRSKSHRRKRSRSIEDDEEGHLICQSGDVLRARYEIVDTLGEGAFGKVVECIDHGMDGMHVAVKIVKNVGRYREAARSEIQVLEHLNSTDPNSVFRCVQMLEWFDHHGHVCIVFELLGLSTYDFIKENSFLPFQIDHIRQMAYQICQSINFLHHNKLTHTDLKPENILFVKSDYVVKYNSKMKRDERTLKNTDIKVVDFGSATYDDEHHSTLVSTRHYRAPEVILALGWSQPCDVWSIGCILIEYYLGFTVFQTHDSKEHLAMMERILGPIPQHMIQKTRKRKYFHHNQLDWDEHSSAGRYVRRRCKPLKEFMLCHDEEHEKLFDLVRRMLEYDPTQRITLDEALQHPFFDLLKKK

[10] = target: Dual specificity tyrosine-phosphorylation-regulated kinase 1A (Homo sapiens, UniProt Q13627); test: biochemical
[11] = target: T5, Dual specificity tyrosine-phosphorylation-regulated kinase 3 (Homo sapiens, UniProt O43781); test: biochemical; format: cell-based, Sf9
T5 sequence (O43781 whole entry): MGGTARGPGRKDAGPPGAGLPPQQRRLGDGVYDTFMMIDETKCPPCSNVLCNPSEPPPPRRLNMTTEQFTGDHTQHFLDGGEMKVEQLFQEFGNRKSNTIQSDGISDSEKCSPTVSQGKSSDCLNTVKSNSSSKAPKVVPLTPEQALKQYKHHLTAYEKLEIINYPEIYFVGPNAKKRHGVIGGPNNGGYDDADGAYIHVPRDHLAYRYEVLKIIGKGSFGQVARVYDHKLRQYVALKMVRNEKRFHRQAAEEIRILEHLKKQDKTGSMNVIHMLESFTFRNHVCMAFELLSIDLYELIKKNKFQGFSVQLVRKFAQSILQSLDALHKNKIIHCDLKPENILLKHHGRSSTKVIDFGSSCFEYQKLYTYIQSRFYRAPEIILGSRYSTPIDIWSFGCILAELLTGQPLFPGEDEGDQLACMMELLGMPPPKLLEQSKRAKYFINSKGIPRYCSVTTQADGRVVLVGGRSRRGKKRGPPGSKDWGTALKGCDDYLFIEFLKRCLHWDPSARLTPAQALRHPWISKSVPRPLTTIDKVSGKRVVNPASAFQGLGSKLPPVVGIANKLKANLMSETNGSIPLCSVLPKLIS

[12] = target: T2, Glycogen synthase kinase-3 beta
[13] = target: T1, Dual specificity protein kinase CLK1
[14] = target: T1, Dual specificity protein kinase CLK1; test: biochemical; format: cell-based, Sf9; conditions: read-out: IC50

T1 sequence (P49759 whole entry): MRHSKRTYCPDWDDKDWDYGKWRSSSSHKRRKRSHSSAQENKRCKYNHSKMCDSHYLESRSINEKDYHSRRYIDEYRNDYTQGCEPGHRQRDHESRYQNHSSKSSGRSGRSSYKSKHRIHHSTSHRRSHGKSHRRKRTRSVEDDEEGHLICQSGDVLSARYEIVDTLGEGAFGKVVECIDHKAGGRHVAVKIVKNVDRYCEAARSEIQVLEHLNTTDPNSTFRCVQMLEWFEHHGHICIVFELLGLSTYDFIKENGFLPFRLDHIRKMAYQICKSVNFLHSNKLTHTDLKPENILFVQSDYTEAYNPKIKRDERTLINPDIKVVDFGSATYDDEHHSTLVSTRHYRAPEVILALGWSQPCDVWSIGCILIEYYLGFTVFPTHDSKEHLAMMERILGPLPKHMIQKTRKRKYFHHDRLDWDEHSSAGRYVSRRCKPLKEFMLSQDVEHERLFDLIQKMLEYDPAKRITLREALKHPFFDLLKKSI
Chain of Dual specificity protein kinase CLK2 (P49760 whole entry): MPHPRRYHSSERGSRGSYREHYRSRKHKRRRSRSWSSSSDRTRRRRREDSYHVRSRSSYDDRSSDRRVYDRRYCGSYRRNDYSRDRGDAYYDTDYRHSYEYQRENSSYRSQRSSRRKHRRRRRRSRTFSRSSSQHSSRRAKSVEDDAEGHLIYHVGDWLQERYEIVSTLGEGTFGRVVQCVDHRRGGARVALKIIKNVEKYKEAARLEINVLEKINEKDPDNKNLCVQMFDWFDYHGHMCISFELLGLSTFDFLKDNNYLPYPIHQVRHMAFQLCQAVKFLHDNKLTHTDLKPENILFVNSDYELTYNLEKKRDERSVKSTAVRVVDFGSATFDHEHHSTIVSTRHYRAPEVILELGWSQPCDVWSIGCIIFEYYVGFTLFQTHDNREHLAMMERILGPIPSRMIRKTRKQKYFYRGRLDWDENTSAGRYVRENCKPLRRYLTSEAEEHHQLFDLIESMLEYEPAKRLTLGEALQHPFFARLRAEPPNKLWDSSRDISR

IC50 [1]	IC50 [2]	IC50 [3]	IC50 [4]	IC50 [5]	IC50 at 48 h (in vitro)	IC50 [6]	IC50 [7]	IC50 [8]	IC50 [9]	IC50 [10]	IC50 [11]	Kd [12]	Kd [13]	IC50 [14]	SMILES
607 nM	772 nM	1330 nM	> 10000 nM	2410 nM	8100 nM	> 10000 nM	> 10000 nM	> 10000 nM	672 nM	8260 nM	> 10000 nM				CCN(CC)Cc1ccc(OC)c(-c2cc3c(-c4ccc(C(=O)O)c(C(C)C)c4)ccnc3[nH]2)c1
125 nM	269 nM	> 10000 nM	> 10000 nM	> 10000 nM	30100 nM	> 10000 nM	> 10000 nM	> 10000 nM	90.9 nM	435 nM	> 10000 nM				Cc1cccc(N(C)c2nccc(-c3cnn4ncccc34)n2)c1
21.1 nM	95.3 nM	3090 nM	108 nM	92.6 nM	27800 nM	1770 nM	15.6 nM	> 10000 nM	14 nM		22.7 nM	939 nM	0.395 nM	13.6 nM	O=C1NC(=Nc2c(Cl)cccc2Cl)S/C1=C\c1ccc2nccnc2c1
11.4 nM	33.3 nM	2200 nM	3690 nM	640 nM	20900 nM	> 10000 nM	26.8 nM	> 10000 nM	6.7 nM		23.5 nM	396 nM	0.58 nM	31.8 nM	COC1=CC2C(=O)NC3=Cc4ccc(OC)cc4C(=C1OC)C32 (configuration not stated)
570 nM	1990 nM	> 10000 nM	> 10000 nM	> 10000 nM	9000 nM	> 10000 nM	3350 nM	> 10000 nM	890 nM		> 10000 nM	> 10000 nM	70.8 nM	180 nM	Oc1ccc(-c2cnc3[nH]cc(-c4ccc(F)cc4)c3c2)cc1O
1210 nM	> 10000 nM	5330 nM	> 10000 nM	> 10000 nM	21600 nM	> 10000 nM	323 nM	> 10000 nM	79.6 nM		> 10000 nM	160 nM	7.63 nM	111 nM	COC(=N)c1nc2ccc3ncnc(Nc4ccc(OC)cc4F)c3c2s1
157 nM	630 nM	> 10000 nM	8370 nM	4920 nM	97000 nM	> 10000 nM	813 nM	> 10000 nM	23.8 nM		1220 nM	2580 nM	8.7 nM	88.3 nM	COc1ccc2c3ccnc(Cl)c3n(CC#N)c2c1

Continued, molecule first:

SMILES	IC50 [1]	IC50 [2]	IC50 [3]	IC50 [4]	IC50 [5]	IC50 at 48 h (in vitro)	IC50 [6]	IC50 [7]	IC50 [8]	IC50 [9]	IC50 [10]	IC50 [11]	Kd [12]	Kd [13]	IC50 [14]
CC(C)(c1ccc(O)cc1)c1ccc(O)cc1 [BISPHENOL A]	> 10000 nM	> 10000 nM	> 10000 nM	> 10000 nM	> 10000 nM	97000 nM	> 10000 nM	> 10000 nM	> 10000 nM	> 10000 nM	> 10000 nM	> 10000 nM			
Oc1ccc(-c2n[nH]c3ncc(-c4ccc(O)c(O)c4)cc23)cc1	10.4 nM	14.3 nM	159 nM	26.8 nM	207 nM	5500 nM	38.9 nM	32.9 nM	38.4 nM	4.7 nM		71.9 nM	260 nM	1.31 nM	37.9 nM
Cc1cc(C(=O)NC2Nc3cccc(C)c3N2[C@H]2CCCCN(C(=O)/C=C/CN(C)C)C2)ccn1 (some centres not stated)	> 10000 nM	5960 nM	5260 nM	> 10000 nM	> 10000 nM	60000 nM	> 10000 nM	> 10000 nM	> 10000 nM	> 10000 nM	> 10000 nM	> 10000 nM			
CC(=O)c1nccc2c1[nH]c1ccccc12	> 10000 nM	> 10000 nM	> 10000 nM	> 10000 nM	> 10000 nM	> 100000 nM	> 10000 nM	> 10000 nM	> 10000 nM	> 10000 nM	> 10000 nM	> 10000 nM			
COc1cc(/C=C/C(=O)CC(=O)/C=C/c2ccc(O)c(OC)c2)ccc1O [CURCUMIN]	> 10000 nM	> 10000 nM	> 10000 nM	> 10000 nM	> 10000 nM	52400 nM	> 10000 nM	1060 nM	> 10000 nM	9750 nM		4260 nM	> 10000 nM	> 1000 nM	4920 nM
COc1cc(CCc2c(O)ccc(O[C@@H]3O[C@H](CO)[C@@H](O)[C@H](O)[C@H]3O)c2C(C)=O)ccc1O [SCORZODIHYDROSTILBENE A]	> 10000 nM	> 10000 nM	> 10000 nM	> 10000 nM	> 10000 nM	> 100000 nM	> 10000 nM	> 10000 nM	> 10000 nM	> 10000 nM	2300 nM	> 10000 nM			
c1ccc(-c2ccc3[nH]ncc3c2)cc1	39.6 nM	211 nM	7510 nM	> 10000 nM	1690 nM	42500 nM	> 10000 nM	1250 nM	1800 nM	15 nM		5850 nM	1980 nM	1.63 nM	24.2 nM
COc1cc(N2CCN(C)CC2)ccc1Nc1nccc(-c2cn(C)c3cnccc23)n1	568 nM	3500 nM	> 10000 nM	6250 nM	> 10000 nM	27800 nM	> 10000 nM	764 nM	1060 nM	403 nM		1220 nM	> 10000 nM	7.35 nM	175 nM
Cn1cc(-c2ccc3occ(-c4cccc(-c5ccncc5)c4)c3n2)cn1			2860 nM	> 10000 nM		2600 nM	> 10000 nM	3040 nM	> 10000 nM	83.9 nM	1140 nM	> 10000 nM			
